The text below walks through data of patent US9133115B2 (ACHILLION PHARMACEUTICALS, INC., priority 2008, dated 2015).

The experiment concerns HCV replicon. Briefly: HCV replicon replication assay (NPT ELISA) in Huh-7 replicon-containing cells. The experiment is classed as cell-based. The conditions noted are these: Hepatitis C virus, 72 h; HCV replicon in Huh-7 cells, three days incubation; read-out: EC50. The method in brief:
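Huh-7 cells carrying a bicistronic HCV replicon (HCV-IRES-neo, EMCV-IRES-driven NS3–NS5B, 3′-NTR) were seeded at 6000-7500 cells/well, grown 24 h to 60-70% confluence, then treated with graded compound concentrations. Replication was read as NPT level by capture ELISA (rabbit anti-NPTII, Eu-N1 secondary); interferon alpha served as positive control.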
On the technique in general: In antiviral work, replicon cells carry a viral genome segment that copies itself.
A word on the EC50: it is the concentration at which the effect is half-maximal. Regarding `C=C[C@@H]1C[C@]1(NC(=O)[C@@H]1C[C@@H](Oc2nc(-c3ccccn3)nc3cc(OC)ccc23)CN1C(=O)[C@@H](CC(=O)N1CCCCC1)C(C)(C)C)C(=O)NS(=O)(=O)C1CC1` [Compound 144, (2S,4R)-1-((S)-2-tert-butyl-4-oxo-4-(piperidin-1-yl)butanoyl)-N-((1R,2S)-1-(cyclo-propylsulfonyl-carbamoyl)-2-vinyl-cyclopropyl)-4-(7-methoxy-2-(pyridin-2-yl)quinazolin-4-yloxy)pyrrolidine-2-carboxamide], the half-maximal effective concentration (EC50) is less than 1000 nM.
To `C=C[C@@H]1C[C@]1(NC(=O)[C@@H]1C[C@@H](Oc2cc(-c3ccccc3)nc3cc(OC)ccc23)CN1C(=O)[C@@H](CC(=O)N1CCC[C@H](NC(=O)OC(C)(C)C)C1)C(C)(C)C)C(=O)NS(=O)(=O)C1CC1` [Compound 167] belongs less than 1000 nM; to `C=CC1C[C@]1(NC(=O)[C@@H]1C[C@@H](Oc2cc(-c3ccccc3)nc3cc(OC)ccc23)CN1C(=O)[C@@H](CC(=O)N1CC(C)CC(C)C1)C(C)(C)C)C(=O)NS(=O)(=O)C1CC1` (stereo partly drawn) [Compound 185], less than 1000 nM.
Regarding `C=C[C@@H]1C[C@]1(NC(=O)[C@@H]1C[C@@H](OC(=O)Nc2ccc(-c3ccccc3)cc2)CN1C(=O)[C@@H](CC(=O)N1CCCCC1)C(C)(C)C)C(=O)NS(=O)(=O)C1CC1` [Compound 61, (3R,5S)-1-((S)-2-tert-butyl-4-oxo-4-(piperidin-1-yl)butanoyl)-5-((1R,2S)-1-(cyclopropyl-sulfonylcarbamoyl)-2-vinylcyclopropyl-carbamoyl)pyrrolidin-3-yl biphenyl-4-ylcarbamate], the EC50 was 1000 to 10000 nM.
To `C=C[C@@H]1C[C@]1(NC(=O)[C@@H]1C[C@@H](Oc2cc(-c3cccnc3)nc3c(C)c(OC)ccc23)CN1C(=O)[C@@H](CC(=O)N1CCCC(F)(F)C1)C(C)(C)C)C(=O)NS(=O)(=O)C1CC1` [Compound 252, (2S,4R)-1-((S)-2-tert-butyl-4-(3,3-difluoropiperidin-1-yl)-4-oxobutanoyl)-N-((2S)-1-(cyclopropyl-sulfonylcarbamoyl)-2-vinylcyclopropyl)-4-(7-methoxy-8-methyl-2-(pyridin-3-yl)quinolin-4-yloxy)pyrrolidine-2-carboxamide] belongs less than 1000 nM.
Turning to `C=C[C@@H]1C[C@]1(NC(=O)[C@@H]1C[C@@H](OC(=O)N2c3ccccc3CCc3ccccc32)CN1C(=O)[C@@H](CC(=O)N1CCCCC1)C(C)(C)C)C(=O)NS(=O)(=O)C1CC1` [Compound 130, (3R,5S)-1-((S)-2-tert-butyl-4-oxo-4-(piperidin-1-yl)butanoyl)-5-((1R,2S)-1-(cyclo-propylsulfonyl-carbamoyl)-2-vinyl-cyclopropylcarbamo-yl)pyrrolidin-3-yl 10,11-dihydro-5H-dibenzo[b,f]azepine-5-carboxylate], the EC50 lay within 1000 to 10000 nM.
To `C=C[C@@H]1C[C@]1(NC(=O)[C@@H]1C[C@@H](NC(=O)n2c3ccccc3c3ccccc32)CN1C(=O)[C@@H](CC(=O)N1CC2CC3CC(C2)CC1C3)C(C)(C)C)C(=O)NS(=O)(=O)C1CC1` [Compound 197] belongs less than 1000 nM; to `C=CC1C[C@]1(NC(=O)[C@@H]1C[C@@H](Oc2cc(-c3ccccc3)nc3cc(OC)ccc23)CN1C(=O)[C@@H](CC(=O)N1C(C)CCCC1C)C(C)(C)C)C(=O)NS(=O)(=O)C1CC1` (stereo partly drawn) [Compound 163], less than 1000 nM; to `C=C[C@@H]1C[C@]1(NC(=O)[C@@H]1C[C@@H](Oc2cc(-c3ccccc3)nc3cc(OC)ccc23)CN1C(=O)[C@@H](CC(=O)N1CCCCC1)C(C)(C)C)C(=O)NS(=O)(=O)C(C)(C)C` [Compound 65, (2S,4R)-1-((S)-2-tert-butyl-4-oxo-4-(piperidin-1-yl)butanoyl)-N-((1R,2S)-1-(tert-butylsulfonyl-carbamoyl)-2-vinylcyclopropyl)-4-(7-methoxy-2-phenylquinolin-4-yloxy)pyrrolidine-2-carboxamide], 1000 to 10000 nM.
On to `C=CC1CC1(NC(=O)C1C[C@@H](Oc2cc(-c3ccccc3)nc3cc(OC)ccc23)CN1C(=O)[C@@H](CC(=O)N1CCCCC1)CC1CCCCC1)C(=O)NS(=O)(=O)C1CC1` (stereo partly drawn) [Compound 54, (4R)-1-((R)-2-(cyclohexylmethyl)-4-oxo-4-(piperidin-1-yl)butanoyl)-N-(1-(cyclopropyl-sulfonylcarbamoyl)-2-vinylcyclopropyl)-4-(7-methoxy-2-phenylquinolin-4-yloxy)pyrrolidine-2-carboxamide], for which the EC50 was less than 1000 nM.
Regarding `C=C[C@@H]1C[C@]1(NC(=O)[C@@H]1C[C@@H](Oc2cc(-c3ccccc3)nc3cc(OC)ccc23)CN1C(=O)[C@@H](CC(=O)N1CCCC1)C(C)(C)C)C(=O)NS(=O)(=O)C1CC1` [Compound 87, (2S,4R)-1-((S)-2-tert-butyl-4-oxo-4-(pyrrolidin-1-yl)butanoyl)-N-((1R,2S)-1-(cyclo-propylsulfonyl-carbamoyl)-2-vinylcyclopropyl)-4-(7-methoxy-2-phenylquinolin-4-yloxy)pyrrolidine-2-carboxamide], the EC50 was less than 1000 nM.
To `C=C[C@@H]1C[C@]1(NC(=O)[C@@H]1C[C@@H](Oc2cc(-c3ccccc3)nc3cc(OC)ccc23)CN1C(=O)[C@@H](CC(=O)N1CCCCC1)C(C)(C)C)C(=O)NS(=O)(=O)C1(CC)CC1` [Compound 145, (2S,4R)-1-((S)-2-tert-butyl-4-oxo-4-(piperidin-1-yl)butanoyl)-N-((1R,2S)-1-(1-ethylcyclopropyl-sulfonylcarbamoyl)-2-vinylcyclopropyl)-4-(7-methoxy-2-phenylquinolin-4-yloxy)pyrrolidine-2-carboxamide] belongs less than 1000 nM; to `C=C[C@@H]1C[C@]1(NC(=O)[C@@H]1C[C@@H](Oc2cc(-c3ccccc3)nc3cc(OC)ccc23)CN1C(=O)[C@@H](CC(=O)N1CCCC(F)C1)C(C)(C)C)C(=O)NS(=O)(=O)C1CC1` (stereo partly drawn) [Compound 83, (2S,4R)-1-((2S)-2-tert-butyl-4-(3-fluoropiperidin-1-yl)-4-oxobutanoyl)-N-((1R,2S)-1-(cyclopropyl-sulfonylcarbamoyl)-2-vinylcyclopropyl)-4-(7-methoxy-2-phenylquinolin-4-yloxy)pyrrolidine-2-carboxamide], less than 1000 nM.
To `C=C[C@@H]1C[C@]1(NC(=O)[C@@H]1C[C@@H](NC(=O)n2c3ccccc3c3ccccc32)CN1C(=O)[C@@H](CC(=O)N1CCC(F)CC1)C(C)(C)C)C(=O)NS(=O)(=O)C1CC1` [Compound 189, N-((3R,5S)-1-((S)-2-tert-butyl-4-(4-fluoropiperidin-1-yl)-4-oxobutanoyl)-5-((1R,2S)-1-(cyclo-propylsulfonyl-carbamoyl)-2-vinylcyclopropyl-carbamoyl)pyrrolidin-3-yl)-9H-carbazole-9-carboxamide] belongs less than 1000 nM; to `C=C[C@@H]1C[C@]1(NC(=O)[C@@H]1C[C@@H](Oc2cc(-c3ccccc3)nc3c(C)c(OC)ccc23)CN1C(=O)[C@@H](CC(=O)N1CCC(C(F)(F)F)CC1)C(C)(C)C)C(=O)NS(=O)(=O)C1CC1` [Compound 240, (2S,4R)-1-((S)-2-tert-butyl-4-oxo-4-(4-(trifluoro-methyl)piperidin-1-yl)butanoyl)-N-((1R)-1-(cyclopropyl-sulfonylcarbamoyl)-2-vinylcyclopropyl)-4-(7-methoxy-8-methyl-2-phenylquinolin-4-yloxy)pyrrolidine-2-carboxamide], less than 1000 nM.
